Measured values reported in patent US8008303B2, “Biphenyl derivatives and their use in treating hepatitis C” (AstraZeneca AB, priority 2005, dated 2011).
Like-named read-outs stand apart in the source and are kept apart here.

Key:
[1] = test system: HCV replicon cells Huh 9B; format: cell-based
[2] = test system: HCV replicon cells Huh 9B; assay: HCV replicon assay (luciferase readout); format: cell-based
Summary of the method: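 Compounds, made up at twice final strength (final DMSO 1%), were added to subgenomic replicon cells one day after plating. Incubation then ran 72 h at 37 °C, 5% CO2, without G418. Replication was quantified as firefly luciferase luminescence in lysed cells, with cytotoxicity assessed on a duplicate clear plate.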

[3] = concentration reducing total cell area by 50% relative to DMSO controls, methylene blue, absorbance 620 nm, 72 h incubation
[4] = Hepatitis C virus, 72 h, concentration reducing replicon level (luciferase activity) by 50% vs untreated cell control, 72 h incubation

Structure (SMILES)	TD50 [1, 3]	IC50 [2, 4] [µM]	TD50 [1]	IC50 [2] [µM]
O=C(Nc1ccc(CN2CCS(=O)(=O)CC2)cc1)c1ccc(-c2cc(NC(=O)C3CCCCC3)ccc2Cl)cc1 [Example 193, 5′-(Cyclohexanecarbonyl-amino)-2′-chloro-biphenyl-4-carboxylic acid [4-(1,1-dioxo-1lambda*6*-thiomorpholin-4-ylmethyl)-phenyl]-amide]	* (* < 50 μM)	< 1		
Cc1ccc(NC(=O)c2ccco2)cc1-c1ccc(C(=O)Nc2ccc(CN3CCS(=O)(=O)CC3)cc2)cc1 [Example 153, Furan-2-carboxylic acid {4′-[4-(1,1-dioxo-1lambda*6*-thiomorpholin-4-ylmethyl)-phenylcarbamoyl]-6-methyl-biphenyl-3-yl}-amide]	* (* < 50 μM)	< 1		
Cc1ccc(C(=O)Nc2ccc(N3CCOCC3)cc2)cc1-c1ccc(C(=O)Nc2cccc(CN3CCSCC3)c2)cc1 [Example 69, 6-Methyl-biphenyl-3,4′-dicarboxylic acid 3-[(4-morpholin-4-yl-phenyl)-amide] 4′-[(3-thiomorpholin-4-ylmethyl-phenyl)-amide]]			* (key: * < 50 μM; ** > 50 μM)	< 1
O=C(Nc1ccc2cc[nH]c2c1)c1ccc(-c2cccc(C(=O)Nc3ccc(N4CCOCC4)cc3)c2)cc1 [Example 60, Biphenyl-3,4′-dicarboxylic acid 4′-[(1H-indol-6-yl)-amide] 3-[(4-morpholin-4-yl-phenyl)-amide]]			* (key: * < 50 μM; ** > 50 μM)	< 1
COc1ccc(S(=O)(=O)Nc2ccc(N3CCOCC3)cc2)cc1-c1ccc(C(=O)Nc2ccc(CN3CCS(=O)(=O)CC3)cc2)cc1 [Example 244, 2′-Methoxy-5′-(4-morpholin-4-yl-phenylsulfamoyl)-biphenyl-4-carboxylic acid [4-(1,1-dioxo-1lambda*6*-thiomorpholin-4-ylmethyl)-phenyl]-amide]	* (* < 50 μM)	< 1		
Cc1ccc(NC(=O)C2CCCC2)cc1-c1ccc(C(=O)Nc2ccc(CN3CCS(=O)(=O)CC3)cc2)cc1 [Example 167, 5′-(Cyclopentanecarbonyl-amino)-2′-methyl-biphenyl-4-carboxylic acid [4-(1,1-dioxo-1lambda*6*-thiomorpholin-4-ylmethyl)-phenyl]-amide]	* (* < 50 μM)	< 1		
Cc1ccc(-c2ccc(C(=O)Nc3ccc(CN4CCS(=O)(=O)CC4)cc3)cc2C)cc1NC(=O)C1CC1 [Example 172, 3′-(Cyclopropanecarbonyl-amino)-2,4′-dimethyl-biphenyl-4-carboxylic acid [4-(1,1-dioxo-1lambda*6*-thiomorpholin-4-ylmethyl)-phenyl]-amide]	* (* < 50 μM)	1 to 5		
Cc1ccc(NC(=O)c2ccco2)cc1-c1ccc(C(=O)NCc2cccc(Cl)c2)cc1 [Example 209, Furan-2-carboxylic acid [4′-(3-chloro-benzylcarbamoyl)-6-methyl-biphenyl-3-yl]-amide]	** (** > 50 μM)	1 to 5		
CC(=O)Nc1ccc(C)c(-c2ccc(C(=O)Nc3ccc(CN4CCS(=O)(=O)CC4)cc3)cc2)c1 [Example 180, 5′-Acetylamino-2′-methyl-biphenyl-4-carboxylic acid [4-(1,1-dioxo-1lambda*6*-thiomorpholin-4-ylmethyl)-phenyl]-amide]	* (* < 50 μM)	< 1		
Cc1ccc(NC(=O)C2CC2)cc1-c1ccc(C(=O)NCc2cccc(Cl)c2)cc1 [Example 216, 5′-(Cyclopropanecarbonyl-amino)-2′-methyl-biphenyl-4-carboxylic acid 3-chloro-benzylamide]	* (* < 50 μM)	> 5		
Cc1ccc(C(=O)NCCCN2CCCC2=O)cc1-c1ccc(C(=O)Nc2ccc(CN3CCS(=O)(=O)CC3)cc2)cc1 [Example 137, 6-Methyl-biphenyl-3,4′-dicarboxylic acid 4′-{[4-(1,1-dioxo-1lambda*6*-thiomorpholin-4-ylmethyl)-phenyl]-amide} 3-{[3-(2-oxo-pyrrolidin-1-yl) -propyl]-amide}]			* (key: * < 50 μM; ** > 50 μM)	1 to 5
Cc1ccc(C(=O)Nc2ccc(N3CCOCC3)cc2)cc1-c1ccc(C(=O)Nc2ccc(CO)cc2)cc1 [Example 81, 6-Methyl-biphenyl-3,4′-dicarboxylic acid 4′-[(4-hydroxymethyl-phenyl)-amide] 3-[(4-morpholin-4-yl-phenyl)-amide]]			* (key: * < 50 μM; ** > 50 μM)	1 to 5
Cc1ccc(NC(=O)C2CC2)cc1-c1ccc(C(=O)Nc2ccc(CN(C)C)cc2)cc1 [Example 223, 5′-(Cyclopropanecarbonyl-amino)-2′-methyl-biphenyl-4-carboxylic acid (4-dimethylaminomethyl-phenyl)-amide]	* (* < 50 μM)	1 to 5		
Cc1ccc(CNC(=O)c2ccc(-c3cc(C(=O)Nc4ccc(N5CCOCC5)cc4)ccc3C)cc2)cc1Cl [Example 43, 6-Methyl-biphenyl-3,4′-dicarboxylic acid 4′-(3-chloro-4-methyl-benzylamide) 3-[(4-morpholin-4-yl-phenyl)-amide]]			** (key: * < 50 μM; ** > 50 μM)	< 1
Cc1ccc(NC(=O)C2CC2)cc1-c1ccc(C(=O)NCc2ccc(N3CCN(C)CC3)cc2)cc1 [Example 217, 5′-(Cyclopropanecarbonyl-amino)-2′-methyl-biphenyl-4-carboxylic acid 4-(4-methyl-piperazin-1-yl)-benzylamide]	* (* < 50 μM)	> 5		
Cc1ccc(NC(=O)CCC2CCCCC2)cc1-c1ccc(C(=O)Nc2ccc(CN3CCS(=O)(=O)CC3)cc2)cc1 [Example 163, 5′-(3-Cyclohexyl-propionylamino)-2′-methyl-biphenyl-4-carboxylic acid [4-(1,1-dioxo-1lambda*6*-thiomorpholin-4-ylmethyl)-phenyl]-amide]	* (* < 50 μM)	< 1		
Cc1ccc(NC(=O)C2CCCCC2)cc1-c1ccc(C(=O)Nc2ccc(CN3CCOCC3)cc2)cc1 [Example 226, 5′-(Cyclohexanecarbonyl-amino)-2′-methyl-biphenyl-4-carboxylic acid (4-morpholin-4-ylmethyl-phenyl)-amide]	* (* < 50 μM)	< 1		
Cc1cccc(CNC(=O)c2ccc(-c3cc(C(=O)Nc4ccc(N5CCOCC5)cc4)ccc3C)cc2)c1 [Example 3, 6-Methyl-biphenyl-3,4′-dicarboxylic acid 4′-(3-methyl-benzylamide) 3-[(4-morpholin-4-yl-phenyl)-amide]]			** (key: * < 50 μM; ** > 50 μM)	1 to 5
Cc1ccc(NC(=O)C2CCOCC2)cc1-c1ccc(C(=O)Nc2ccc(CN3CCS(=O)(=O)CC3)cc2)cc1 [Example 170, Tetrahydro-pyran-4-carboxylic acid {4′-[4-(1,1-dioxo-1lambda*6*-thiomorpholin-4-ylmethyl)-phenylcarbamoyl]-6-methyl-biphenyl-3-yl}-amide]	* (* < 50 μM)	< 1		
Cc1ccc(C(=O)NCCc2cnc[nH]2)cc1-c1ccc(C(=O)Nc2ccc(CN3CCS(=O)(=O)CC3)cc2)cc1 [Example 127, 6-Methyl-biphenyl-3,4′-dicarboxylic acid 4′-{[4-(1,1-dioxo-1lambda*6*-thiomorpholin-4-ylmethyl)-phenyl]-amide} 3-{[2-(3H-imidazol-4-yl) -ethyl]-amide}]			* (key: * < 50 μM; ** > 50 μM)	1 to 5
